Assay results as given in patent US8901118B2, “Compounds and methods for kinase modulation, and indications therefor” (Plexxikon Inc., priority 2010, dated 2014).

Key:
BCR-KIT BaF3 cells = target: T1, BCR-KIT BaF3 cells (Homo sapiens, UniProt P10721); test: BaF3 BCR-KIT cell proliferation assay (ATPlite); format: cell-based; settings: read-out: Inhibition of Cell Proliferation IC50, BCR/BaF3 Kit
T1 construct: fused on or other part: P11274 (Breakpoint cluster region protein)
Procedure: (§1) Compounds are assessed in a variety of cell based assays. For example BaF3 cells engineered with any of BCR-FMS, BCR-KIT, BCR-FLT3, BCR-NTRK1, BCR-NTRK2, and BCR-NTRK3, are used in cell proliferation assays to assess inhibitory activity of Fms, Kit, Flt-3, TrkA, TrkB, and TrkC, respectively. An MV-4-11 (leukemia) cell proliferation assay is used to assess inhibitory activity in Flt-3, and SKNSH (human neuroblastoma) cell proliferation assay is used to assess efficacy of Fms/Trk inhibitors. Additional cells may be assayed similarly to assess the efficacy of Fms/Trk inhibitors, such as MiaPaCa (human pancreatic cancer) and Capan-1 (human pancreatic carcinoma) cells. Reagent and assay conditions are as follows: • BaF3 cells: • Maintained in RPMI containing 10% FBS, 1% PenStrep, 1% NEAA, and 1% L-Glutamine, supplemented with 1 mg/mL G418 and 5% WEHI-CM (or recombinant murine IL-3). • Confluent cells are split 1:50 to 1:100 every 3-4 days. • MV-4-11 cells: • Maintained in Iscove's Modified Dulbecco's Medium containing 10% FBS. • Confluent cells are split 1:4 every 3-4 days. • SKNSH cells: RPMI containing 10% FBS. On day 1, cells are counted, then centrifuged in a conical tube for 5 minutes at 1000 rpm. The supernatant is removed and cells are re-suspended as follows: • BaF3: resuspend in growth media +1 mg/mL G418 (without WEHFIL-3) to 2×10^5 cells/mL. • MV-4-11: resuspend in growth media to 5×10^5 cells/mL. • SKNSH: resuspend in growth media to 2×10^4 cells/mL. The cells are plated (50 μL, 150 μL for SKNSH cells) in each well of a 96-well dish (Corning 3610) and incubated at 37° C. in 5% CO2 overnight, cells plated to a final concentration of cells as follows: • BaF3: 10,000 cells per well. • MV-4-11: 25,000 cells per well. • SKNSH: 3,000 cells per well. On day 2, compound at a maximum concentration of 5 mM is serially diluted 1:3 for a total of 8 point titration with DMSO as a control. A 1 μL aliquot of each dilution point is added to 249 μL growth media and 50 μL is added to a well containing cells, providing 10 μM compound for the maximum concentration point. The cells are incubated for 3 days at 37° C. in 5% CO2. For SKNSH cells, a 0.75 μL aliquot of appropriate dilution in DMSO is added to 150 μL of cells. On day 5, ATPlite 1 step Luminescence Assay System (Perkin Elmer #6016739) is brought to room temperature along with the cell cultures. ATPlite is added to each well as follows: • BaF3: 25 μL per well. • MV-4-11: 40 μL per well. • SKNSH: 20 μL per well. The cells are incubated at room temperature for 10 minutes, then luminescence is read on Safire reader. The measured luminescence correlates directly with cell number, such that the reading as a function of compound concentration is used to determine the IC50 value.
(§2) It is understood that the results of these assays may vary as assay conditions are varied. Inhibition levels determined under the conditions described herein represent a relative activity for the compounds tested under the specific conditions employed. The cell based assays are likely to show variability due to the complexity of the system and the sensitivity thereof to any changes in the assay conditions. […] Results for compounds that are tested and show substantially no inhibition below the highest tested concentration are represented as “-” in the tables below. In some instances, the compounds were not tested in all of the assays, or assay results were not valid, as indicated by NA in the tables below.

BCR-NTRK3 BaF3 cells = target: T2, BCR-NTRK3 BaF3 cells (Homo sapiens, UniProt Q16288); test: BaF3 BCR-NTRK3 cell proliferation assay (ATPlite); format: cell-based; settings: read-out: Inhibition of Cell Proliferation IC50, BCR/BaF3 TrkC
T2 construct: fused on or other part: P11274 (Breakpoint cluster region protein)
T2 sequence (Q16288 whole entry, the tested form may be a part): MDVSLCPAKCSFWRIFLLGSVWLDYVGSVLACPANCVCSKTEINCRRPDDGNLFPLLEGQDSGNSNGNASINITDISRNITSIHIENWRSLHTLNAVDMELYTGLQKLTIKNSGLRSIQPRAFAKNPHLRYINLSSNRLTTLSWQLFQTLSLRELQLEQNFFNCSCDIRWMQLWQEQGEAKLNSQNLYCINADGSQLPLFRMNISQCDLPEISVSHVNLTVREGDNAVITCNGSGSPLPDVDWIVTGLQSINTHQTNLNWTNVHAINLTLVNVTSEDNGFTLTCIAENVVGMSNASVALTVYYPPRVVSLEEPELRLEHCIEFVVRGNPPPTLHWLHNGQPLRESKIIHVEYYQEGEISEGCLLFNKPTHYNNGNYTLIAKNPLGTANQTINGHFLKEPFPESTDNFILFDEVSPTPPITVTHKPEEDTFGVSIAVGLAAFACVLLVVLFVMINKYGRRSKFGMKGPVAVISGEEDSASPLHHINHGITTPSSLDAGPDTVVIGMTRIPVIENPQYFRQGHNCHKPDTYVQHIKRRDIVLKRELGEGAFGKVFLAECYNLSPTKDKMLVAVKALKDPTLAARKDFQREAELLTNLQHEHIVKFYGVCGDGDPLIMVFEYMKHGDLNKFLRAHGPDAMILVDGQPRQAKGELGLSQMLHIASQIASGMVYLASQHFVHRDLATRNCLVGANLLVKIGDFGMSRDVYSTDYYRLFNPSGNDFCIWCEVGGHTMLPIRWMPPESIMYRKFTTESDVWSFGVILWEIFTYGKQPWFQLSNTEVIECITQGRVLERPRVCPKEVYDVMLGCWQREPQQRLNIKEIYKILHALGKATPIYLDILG
Procedure: as §1, §2

CYP1A2 = target: T3, CYP1A2 (Homo sapiens, UniProt P05177); test: CYP1A2 inhibition (fluorescent substrate CEC); format: in vitro ADME; settings: read-out: Cyp IC50 1A2
T3 sequence (P05177 1-516): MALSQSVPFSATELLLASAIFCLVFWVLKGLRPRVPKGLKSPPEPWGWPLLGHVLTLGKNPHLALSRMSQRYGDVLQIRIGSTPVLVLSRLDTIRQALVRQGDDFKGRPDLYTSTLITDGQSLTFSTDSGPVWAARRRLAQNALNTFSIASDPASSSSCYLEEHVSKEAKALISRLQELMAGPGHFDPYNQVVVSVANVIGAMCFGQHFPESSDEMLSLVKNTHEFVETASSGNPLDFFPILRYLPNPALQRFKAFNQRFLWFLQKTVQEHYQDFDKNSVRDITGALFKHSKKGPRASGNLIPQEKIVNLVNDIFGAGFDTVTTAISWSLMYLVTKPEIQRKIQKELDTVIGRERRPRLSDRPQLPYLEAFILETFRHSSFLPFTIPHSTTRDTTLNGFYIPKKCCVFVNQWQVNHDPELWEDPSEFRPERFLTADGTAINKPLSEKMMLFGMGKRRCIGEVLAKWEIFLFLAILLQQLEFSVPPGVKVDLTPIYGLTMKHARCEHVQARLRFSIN
Procedure: (§3) CYP (Cytochrome P450) enzymes are the major drug metabolizing enzymes present in the liver. The inhibition of CYP enzyme activity (IC50) for each of CYP1A2, CYP2C19, CYP2C9, CYP2D6, CYP3A4(BFC) and CYP3A4(BQ) is determined for compounds, where inhibition of metabolism of a known substrate leads to a decrease in the fluorescence of the metabolized product. The fluorescence of the product is monitored as a function of compound concentration. Compounds are dissolved in DMSO to a concentration of 100 mM. These are diluted 1 μL into 82 μL of acetonitrile. An 11 μL aliquot of this solution is then added to 204 μL of cofactor mix (1.3% NADPH Regeneration system Solution A, 1.04% NADPH Regeneration system Solution B from BD Biosciences, 5% acetonitrile and 0.05% DMSO). These are then serially diluted 1:1 (160 μL to 160 μL co-factor mix) for a total of 10 points. A 10 μL aliquot of this final mixture is dispensed into 384 well assay plates and incubated for 10 minutes at 37° C. […] Assay plates are incubated at 37° C. (CYP1A2-15 min; CYP2C9-45 min; CYP2C19, 2D6 and 3A4-30 min) and read in a Tecan Safire 2 plate reader (CYP1A2, 2C19 and 3A4 409 ex/460 em; CYP2C9 and 2D6 409 ex/530 em). The signal versus compound concentration is used to determine the IC50. The enzymes and substrates for this assay are obtained from BD Biosciences.

CYP3A4(BQ) = CYP3A4(BQ) (Homo sapiens, UniProt P08684); test: CYP3A4(BQ) inhibition; format: in vitro ADME; settings: CYP3A4, substrate BQ; read-out: Cyp IC50 3A4(BQ)
Sequence of CYP3A4(BQ) (P08684 whole entry): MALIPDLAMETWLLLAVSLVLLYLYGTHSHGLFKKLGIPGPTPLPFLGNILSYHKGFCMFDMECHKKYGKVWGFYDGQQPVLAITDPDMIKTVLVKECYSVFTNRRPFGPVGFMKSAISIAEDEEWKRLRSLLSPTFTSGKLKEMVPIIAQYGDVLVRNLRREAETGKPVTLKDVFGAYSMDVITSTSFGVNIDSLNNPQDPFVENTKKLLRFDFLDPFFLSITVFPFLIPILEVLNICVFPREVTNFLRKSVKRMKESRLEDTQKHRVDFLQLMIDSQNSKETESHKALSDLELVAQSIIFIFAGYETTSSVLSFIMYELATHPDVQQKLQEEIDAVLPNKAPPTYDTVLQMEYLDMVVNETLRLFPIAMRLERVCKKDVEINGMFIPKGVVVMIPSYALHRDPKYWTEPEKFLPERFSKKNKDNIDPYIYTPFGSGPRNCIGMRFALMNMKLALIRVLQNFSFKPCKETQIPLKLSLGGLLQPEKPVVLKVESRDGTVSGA
Procedure: as §3

T1 sequence (P10721 589-937): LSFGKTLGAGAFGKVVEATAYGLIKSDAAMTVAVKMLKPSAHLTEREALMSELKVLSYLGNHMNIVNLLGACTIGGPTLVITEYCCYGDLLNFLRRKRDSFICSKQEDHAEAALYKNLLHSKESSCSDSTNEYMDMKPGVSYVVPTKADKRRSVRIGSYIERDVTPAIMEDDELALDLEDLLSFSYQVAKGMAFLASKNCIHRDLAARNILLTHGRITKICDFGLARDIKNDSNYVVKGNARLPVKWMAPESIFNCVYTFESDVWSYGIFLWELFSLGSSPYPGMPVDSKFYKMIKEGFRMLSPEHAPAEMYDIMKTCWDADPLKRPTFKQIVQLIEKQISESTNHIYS

SMILES	IC50 (BCR-KIT BaF3 cells) [µM]	IC50 (BCR-NTRK3 BaF3 cells) [µM]	IC50 (CYP1A2) [µM]	IC50 (CYP3A4(BQ)) [µM]
CCc1ccc(Nc2ccc(C(=O)c3c[nH]c4ncnc(NC(C)C)c34)c(F)n2)cn1 [Compound P-4117, [6-[(6-ethyl-3-pyridyl)amino]-2-fluoro-3-pyridyl]-[4-(isopropylamino)-7H-pyrrolo[2,3-d]pyrimidin-5-yl]methanone]	< 0.1	< 0.01	5 to 10	> 10
COc1cncc(Nc2ccc(C(=O)c3c[nH]c4ncnc(NCC(F)(F)F)c34)c(F)n2)c1 [Compound P-4103, [2-fluoro-6-[(5-methoxy-3-pyridyl)amino]-3-pyridyl]-[4-(2,2,2-trifluoroethylamino)-7H-pyrrolo[2,3-d]pyrimidin-5-yl]methanone]	> 1	> 1	< 5	> 10
CCc1ccc(Nc2ccc(C(=O)c3c[nH]c4ncnc(NCC(C)(C)O)c34)c(F)n2)cn1 [Compound P-4064, [6-[(6-ethyl-3-pyridyl)amino]-2-fluoro-3-pyridyl]-[4-[(2-hydroxy-2-methyl-propyl)amino]-7H-pyrrolo[2,3-d]pyrimidin-5-yl]methanone]	< 0.1	< 0.01	> 10	> 10
COc1ccc(Nc2ccc(C(=O)c3c[nH]c4ncnc(NC5CCCCC5)c34)c(F)n2)cn1 [Compound P-4082, [4-(cyclohexylamino)-7H-pyrrolo[2,3-d]pyrimidin-5-yl]-[2-fluoro-6-[(6-methoxy-3-pyridyl)amino]-3-pyridyl]methanone]	< 0.1	< 0.01	> 10	5 to 10
CCc1ccc(Nc2ccc(C(=O)c3c[nH]c4ncnc(NCC5CC5)c34)c(F)n2)cn1 [Compound P-4118, [4-(cyclopropylmethylamino)-7H-pyrrolo[2,3-d]pyrimidin-5-yl]-[6-[(6-ethyl-3-pyridyl)amino]-2-fluoro-3-pyridyl]methanone]	< 0.1	< 0.01	> 10	> 10
Cc1cnc2[nH]cc(Cc3cnc(Nc4ccc(F)cc4)nc3)c2c1 [Compound P-3010, (4-Fluoro-phenyl)-[5-(5-methyl-1H-pyrrolo[2,3-b]pyridin-3-ylmethyl)-pyrimidin-2-yl]-amine]	< 1	> 10	> 10	> 10
CNc1ncnc2[nH]cc(C(=O)c3ccc(Nc4cncc(OC)c4)nc3F)c12 [Compound P-4108, [2-fluoro-6-[(5-methoxy-3-pyridyl)amino]-3-pyridyl]-[4-(methylamino)-7H-pyrrolo[2,3-d]pyrimidin-5-yl]methanone]	> 1	< 0.1	< 5	> 10
CNc1ncnc2[nH]cc(C(=O)c3ccc(NC4CCC(F)(F)CC4)nc3F)c12 [Compound P-4063, [6-[(4,4-difluorocyclohexyl)amino]-2-fluoro-3-pyridyl]-[4-(methylamino)-7H-pyrrolo[2,3-d]pyrimidin-5-yl]methanone]	< 0.1	< 0.01	> 10	> 10
COc1ccc(Nc2ccc(C(=O)c3c[nH]c4ncnc(N5CCOCC5)c34)c(F)n2)cn1 [Compound P-4070, [2-fluoro-6-[(6-methoxy-3-pyridyl)amino]-3-pyridyl]-(4-morpholino-7H-pyrrolo[2,3-d]pyrimidin-5-yl)methanone]	> 1	> 1	> 10	> 10
CCC(CC)Nc1ncnc2[nH]cc(C(=O)c3ccc(Nc4ccc(OC)nc4)nc3F)c12 [Compound P-4077, [4-(1-ethylpropylamino)-7H-pyrrolo[2,3-d]pyrimidin-5-yl]-[2-fluoro-6-[(6-methoxy-3-pyridyl)amino]-3-pyridyl]methanone]	< 0.1	< 0.01	5 to 10	> 10
CCNc1ncnc2[nH]cc(C(=O)c3ccc(Nc4ccc(OC)nc4)nc3F)c12 [Compound P-4081, [4-(ethylamino)-7H-pyrrolo[2,3-d]pyrimidin-5-yl]-[2-fluoro-6-[(6-methoxy-3-pyridyl)amino]-3-pyridyl]methanone]	< 0.1	< 0.01	> 10	> 10
Fc1nc(NC2CCC(F)(F)CC2)ccc1Cc1c[nH]c2ncc(Cl)cc12 [Compound P-3013, [5-(5-Chloro-1H-pyrrolo[2,3-b]pyridin-3-ylmethyl)-6-fluoro-pyridin-2-yl]-(4,4-difluoro-cyclohexyl)-amine]	> 1	> 10	5 to 10	> 10
O=C(c1ccc(NC2CCC(F)(F)CC2)nc1F)c1c[nH]c2ncnc(NCC(F)(F)F)c12 [Compound P-4061, [6-[(4,4-difluorocyclohexyl)amino]-2-fluoro-3-pyridyl]-[4-(2,2,2-trifluoroethylamino)-7H-pyrrolo[2,3-d]pyrimidin-5-yl]methanone]	> 1	< 0.01	> 10	> 10
CCCCNc1ncnc2[nH]cc(C(=O)c3ccc(Nc4ccc(OC)nc4)nc3F)c12 [Compound P-4080, [4-(butylamino)-7H-pyrrolo[2,3-d]pyrimidin-5-yl]-[2-fluoro-6-[(6-methoxy-3-pyridyl)amino]-3-pyridyl]methanone]	< 0.1	< 0.01	> 10	> 10
